In ChEMBL document CHEMBL4376832, “Changing the Rules of TB-Drug Discovery” (J Med Chem, 2019) one finds MIC and IC50 data, which are given here for two compounds.

The subject of test [1] is Mycobacterium tuberculosis. Nature of the test: Antimycobacterial against GFP-transfected Mycobacterium tuberculosis H37Rv assessed as reduction in GFP protein expression and measured every 2 days for 12 days. Type of test: functional.
Test [2] is described as follows: Inhibition of Mycobacterium phlei DSM-43239 C-terminal ATP-synthase assessed as reduction in luciferase activity incubated for 10 mins in presence of ATP by luminometric method. The arrangement: species or system Mycolicibacterium phlei DSM 43239 = CCUG 21000.
Test [3] in a line: Inhibition of ATP-synthase (unknown origin). The arrangement: species or system Homo sapiens.

Structures are written as SMILES. In brackets after ≈: the same amount, converted by molar mass. A value given as a limit tells only on which side of the number the result lay.

Take `COc1ccc(S(=O)(=O)N2CCCCCC2)cc1NC(=O)Cc1nnc(O)c2ccccc12`: the MIC (usually the smallest concentration in the dilution series that meets the test's criterion for growth inhibition) in test [1] turned out to be 250 µM (≈ 118 µg/mL).

On to `COc1nc2ccc(Br)cc2cc1[C@@H](c1ccccc1)[C@@](O)(CCN(C)C)c1cccc2ccccc12` [BEDAQUILINE], for which the IC50 – broadly, the concentration that inhibits the measured activity by half – in test [2] was 20 to 25 nM; in test [3], above 200000 nM.
